From US9994587B2, “HIV protease inhibitors” (priority 2014, dated 2018) come the findings set out here.

SMILES strings stand for the structures.

The assay relates to HIV-1 (NL4-3 strain). As to the kind of experiment: Viral Kinetics GFP Reporter (ViKinG) assay. The class given is cell-based. To be noted: Human immunodeficiency virus 1, NL43; 50% NHS; MT4-GFP cells infected with HIV-1 NL4-3; mean of at least two independent experiments. From the text:
Viral Kinetics GFP Reporter (ViKinG) Assay
The ViKinG assay is an in vitro kinetic assay that employs the MT4-gag-GFP reporter cell line (Wang et al., “Assessment of the susceptibility of mutant HIV-1 to antiviral agents.” J Virological Methods 165:230-37 (2010)) to quantify the number of new cells infected in each round of replication. The purpose of the ViKinG assay is to identify agents that inhibit HIV progression. Briefly, HIV infection results in tat transactivation of the stably expressed HIV LTR promoter to drive gagGFP expression. Thus, an increase in the number of GFP-MT4 cells results following HIV infection.
MT4-GFP cells (250,000 cells/ml) were bulk-infected with HIV-1 (NL4-3 strain) at low multiplicity of infection (MOI) in RPMI+10% FBS for 24 hours. Cells were then washed once in RPMI+10% FBS and resuspended RPMI+10% or 50% normal human serum (NHS). Test compounds were serial-diluted in DMSO on an ECHO® liquid handling platform (Labcyte Corp., Sunnyvale, Calif.), along with a triple drug control (integrase, protease and NNRTI compounds). The infected MT4-GFP cells were added to a 384-well poly-D-lysine coated black plate with clear bottom in which the diluted test compounds were placed. The cells were seeded at 8,000 cells per well and the final DMSO concentration was 0.4%. The infected cells (Green GFP cells) were quantified at both 24 and 48 hours post incubation using Acumen® eX3 (TTP Labtech Ltd., Hertfordshire, United Kingdom). Viral reproductive ratio (R0) was determined using the number of infected cells at 48 hours divided by the number of infected cells at 24 hours. Percent viral growth inhibition was calculated by [1−(R−Rtripledrug)/(RDMSO−Rtripledrug)]*100. Compound potency IP or IC50 was determined by a 4-parameter dose response curve analysis.
On to `COC(=O)N[C@H](C(=O)Nc1cncc(F)c1CC[C@@H]1CNCC2(CCOCC2)O1)[C@@H](c1ccc(Cl)cc1)c1cccc(OC(F)(F)F)c1` [Example 157, methyl{(1S,2S)-2-(4-chlorophenyl)-1-[(4-{2-[(2R)-1,9-dioxa-4-azaspiro[5.5]undec-2-yl]ethyl}-5-fluoropyridin-3-yl)carbamoyl]-2-[3-(trifluoromethoxy)phenyl]ethyl}carbamate], for which the concentration for half-maximal inhibition (IC50) (as a rule, the concentration needed to halve the response being measured) is 210 nM. This counts as sub-micromolar.
The value for `COC(=O)N[C@H](C(=O)Nc1cccc(F)c1CC[C@@H]1CNCC2(CCCC(=O)C2)O1)[C@@H](c1ccc(F)cc1)c1cc(F)cc(F)c1` (stereo partly drawn) [Example 92, Methyl ((1S,2S)-1-(3,5-difluorophenyl)-3-((3-fluoro-2-(2-((2R)-8-oxo-1-oxa-4-azaspiro[5.5]undecan-2-yl)ethyl)phenyl)amino)-1-(4-fluorophenyl)-3-oxopropan-2-yl)carbamate] was 35 nM; that for `N[C@H](C(=O)Nc1cccc(F)c1CC[C@@H]1CNCC2(CCOC2)O1)[C@@H](c1ccc(Cl)cc1)c1cc(F)cc(F)c1` (stereo partly drawn) [Example 162, (βS)-4-chloro-β-(3,5-difluorophenyl)-N-(2-{2-[(7R)-2,6-dioxa-9-azaspiro[4.5]dec-7-yl]ethyl}-3-fluorophenyl)-L-phenylalaninamide] was 180 nM; that for `N[C@H](C(=O)Nc1cncc(F)c1CC[C@@H]1CNCC2(CCOCC2)O1)[C@@H](c1ccc(Cl)cc1)c1cc(F)cc(F)c1` [Example 155, (βS)-4-chloro-β-(3,5-difluorophenyl)-N-(4-{2-[(2R)-1,9-dioxa-4-azaspiro[5.5]undec-2-yl]ethyl}-5-fluoropyridin-3-yl)-L-phenylalaninamide] was 140 nM.
`COC(=O)N[C@H](C(=O)Nc1cncc(F)c1CC[C@@H]1CNCC2(CCCC2)O1)C(c1ccc(F)cc1)c1ccc(F)cc1` [Example 100, methyl {(1S)-1-[bis(4-fluorophenyl)methyl]-2-[(5-fluoro-4-{2-[(7R)-6-oxa-9-azaspiro[4.5]dec-7-yl]ethyl}pyridin-3-yl)amino]-2-oxoethyl}carbamate] registered an IC50 of 71 nM.
Regarding `COC(=O)N[C@H](C(=O)Nc1cccc(F)c1CC[C@@H]1CNCC2(CCOC2)O1)[C@@H](c1ccc(Cl)cc1)c1cc(F)cc(F)c1` (stereo partly drawn) [Example 163, methyl{(1S,2S)-2-(4-chlorophenyl)-2-(3,5-difluorophenyl)-1-[(2-{2-[(7R)-2,6-dioxa-9-azaspiro[4.5]dec-7-yl]ethyl}-3-fluorophenyl)carbamoyl]ethyl}carbamate], the IC50 was 150 nM.
The result for `N[C@H](C(=O)Nc1cncc(F)c1CC[C@@H]1CNCC2(CCOCC2)O1)C(c1ccc(F)cc1)c1ccc(F)cc1` [Example 101, N-(4-{2-[(2R)-1,9-dioxa-4-azaspiro[5.5]undec-2-yl]ethyl}-5-fluoropyridin-3-yl)-4-fluoro-β-(4-fluorophenyl)-L-phenylalaninamide] reads 110 nM.
The result for `N[C@H](C(=O)Nc1cncc(F)c1CC[C@@H]1CNCC2(CCOCC2)O1)[C@@H](c1ccc(Cl)cc1)C1CCOCC1` [Example 158, (βR)-4-chloro-N-(4-{2-[(2R)-1,9-dioxa-4-azaspiro[5.5]undec-2-yl]ethyl}-5-fluoropyridin-3-yl)-β-(tetrahydro-2H-pyran-4-yl)-L-phenylalaninamide] reads 390 nM; that for `N[C@H](C(=O)Nc1cccc(F)c1CC[C@@H]1CNCC2(CCOCC2)O1)[C@@H](c1ccc(Cl)cc1)c1cc(F)cc(F)c1` [Example 96, (βS)-4-chloro-β-(3,5-difluorophenyl)-N-(2-{2-[(2R)-1,9-dioxa-4-azaspiro[5.5]undec-2-yl]ethyl}-3-fluorophenyl)-L-phenylalaninamide], 80 nM; that for `N[C@H](C(=O)Nc1cncc(F)c1CC[C@@H]1CNCC2(CCOCC2)O1)[C@@H](c1ccc(Cl)cc1)c1cccc(OC(F)(F)F)c1` [Example 156, (βS)-4-chloro-N-(4-{2-[(2R)-1,9-dioxa-4-azaspiro[5.5]undec-2-yl]ethyl}-5-fluoropyridin-3-yl)-β-[3-(trifluoromethoxy)phenyl]-L-phenylalaninamide], 480 nM.
The value for `N[C@H](C(=O)Nc1cccc(F)c1CC[C@@H]1CNCC2(CCOCC2)O1)[C@@H](c1ccc(Cl)cc1)C1CCOCC1` [Example 159, (βR)-4-chloro-N-(2-{2-[(2R)-1,9-dioxa-4-azaspiro[5.5]undec-2-yl]ethyl}-3-fluorophenyl)-β-(tetrahydro-2H-pyran-4-yl)-L-phenylalaninamide] was 490 nM.
`COC(=O)N[C@H](C(=O)Nc1cccc(F)c1CC[C@@H]1CNCC2(CCN(C(C)=O)CC2)O1)[C@@H](c1ccc(Cl)cc1)c1cc(F)cc(F)c1` [Example 151, methyl{(1S)-2-[(2-{2-[(2R)-9-acetyl-1-oxa-4,9-diazaspiro[5.5]undec-2-yl]ethyl}-3-fluorophenyl)amino]-1-[(S)-(4-chlorophenyl)(3,5-difluorophenyl)methyl]-2-oxoethyl}carbamate] gave a 50% inhibitory concentration (IC50) of 170 nM.
The value for `CC(=O)N1CCC2(CC1)CNC[C@@H](CCc1c(F)cccc1NC(=O)[C@@H](N)[C@@H](c1ccc(Cl)cc1)c1cc(F)cc(F)c1)O2` [Example 95, (2S,3S)—N-(2-(2-((R)-9-Acetyl-1-oxa-4,9-diazaspiro[5.5]undecan-2-yl)ethyl)-3-fluorophenyl)-2-amino-3-(4-chlorophenyl)-3-(3,5-difluorophenyl)propanamide] was 150 nM.
Consider `CC(=O)N1CCC2(CC1)CNC[C@@H](CCc1c(F)cncc1NC(=O)[C@@H](N)[C@@H](c1ccc(Cl)cc1)c1cc(F)cc(F)c1)O2` [Example 152, (βS)-N-(4-{2-[(2R)-9-acetyl-1-oxa-4,9-diazaspiro[5.5]undec-2-yl]ethyl}-5-fluoropyridin-3-yl)-4-chloro-β-(3,5-difluorophenyl)-L-phenylalaninamide], for which the IC50 stood at 320 nM.
The value for `COC(=O)N[C@H](C(=O)Nc1cncc(F)c1CC[C@@H]1CNCC2(CCOCC2)O1)[C@@H](c1ccc(Cl)cc1)C1CCOCC1` [Example 160, methyl[(1S,2R)-2-(4-chlorophenyl)-1-[(4-{2-[(2R)-1,9-dioxa-4-azaspiro[5.5]undec-2-yl]ethyl}-5-fluoropyridin-3-yl)carbamoyl]-2-(tetrahydro-2H-pyran-4-yl)ethyl]carbamate] was 350 nM.
The result for `N[C@H](C(=O)Nc1cncc(F)c1CC[C@@H]1CNCC2(CCCC2)O1)C(c1ccc(F)cc1)c1ccc(F)cc1` [Example 150, 4-fluoro-N-(5-fluoro-4-{2-[(7R)-6-oxa-9-azaspiro[4.5]dec-7-yl]ethyl}pyridin-3-yl)-β-(4-fluorophenyl)-L-phenylalaninamide] reads 270 nM.
`COC(=O)N[C@H](C(=O)Nc1cccc(F)c1CC[C@@H]1CNCC2(CCOCC2)O1)[C@@H](c1ccc(Cl)cc1)c1cc(F)cc(F)c1` [Example 97, methyl {(1S,2S)-2-(4-chlorophenyl)-2-(3,5-difluorophenyl)-1-[(2-{2-[(2R)-1,9-dioxa-4-azaspiro[5.5]undec-2-yl]ethyl}-3-fluorophenyl)carbamoyl]ethyl}carbamate]: the IC50 was 55 nM.
The value for `CS(=O)(=O)N1CCC2(CC1)CNC[C@@H](CCc1c(F)cncc1NC(=O)[C@@H](N)[C@@H](c1ccc(Cl)cc1)c1cccc(OC(F)(F)F)c1)O2` [Example 154, (βS)-β-(4-chlorophenyl)-N-(5-fluoro-4-{2-[(2R)-9-(methylsulfonyl)-1-oxa-4,9-diazaspiro[5.5]undec-2-yl]ethyl}pyridin-3-yl)-3-(trifluoromethoxy)-L-phenylalaninamide] was 300 nM.
In turn, `COC(=O)N[C@H](C(=O)Nc1cncc(F)c1CC[C@@H]1CNCC2(CCN(C(C)=O)CC2)O1)[C@@H](c1ccc(Cl)cc1)c1cc(F)cc(F)c1` [Example 153, methyl{(1S)-2-[(4-{2-[(2R)-9-acetyl-1-oxa-4,9-diazaspiro[5.5]undec-2-yl]ethyl}-5-fluoropyridin-3-yl)amino]-1-[(S)-(4-chlorophenyl)(3,5-difluorophenyl)methyl]-2-oxoethyl}carbamate] returned an IC50 of 310 nM. The IC50 values of the last two compounds are within 1.5-fold of each other.
The result for `COC(=O)N[C@H](C(=O)Nc1cccc(F)c1CC[C@@H]1CNCC2(CCOCC2)O1)[C@@H](c1ccc(Cl)cc1)C1CCOCC1` [Example 161, methyl[(1S,2R)-2-(4-chlorophenyl)-1-[(2-{2-[(2R)-1,9-dioxa-4-azaspiro[5.5]undec-2-yl]ethyl}-3-fluorophenyl)carbamoyl]-2-(tetrahydro-2H-pyran-4-yl)ethyl]carbamate] reads 130 nM.
